Test results from US10206907B2, “Compounds useful for the treatment of degenerative and inflammatory diseases” (GALAPAGOS NV, priority 2008, dated 2019).
Read-outs that look alike come from different tables or passages of the source.

Assays:
[1] = Microsomal stability, rat liver microsomes; type: in vitro ADME; settings: percentage of compound remaining after 60 minutes, 3 μM compound
Method in brief: (§1)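 Percent parent remaining after 60 min was determined by LCMS against a time-zero sample quenched before microsome addition. Incubations ran at 37°C with liver microsomes and a G6PDH-based NADPH-regenerating cofactor mix. Quench was MeOH or ACN (1:1).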

MMP13 in SW1353 cells = assay: OSM/IL-1β signaling assay (MMP13 levels in SW1353 cells); type: cell-based; settings: Homo sapiens; SW1353 cells, OSM and IL-1β triggered, MMP13 levels 48 hours after triggering; read-out: MMP13 EC50;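 further: secreted MMP13 captured by antibody, activated with APMA and its activity read by fluorescence, inhibition scaled between vehicle-treated triggered wells (0%) and untriggered wells (100%)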
[2] = target: Recombinant human JAK1 catalytic domain (Homo sapiens (Human), UniProt P23458); assay: JAK1 inhibition assay; type: biochemical
Method in brief: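 IC50 values come from dose-response series, with each point expressed as percent inhibition of cpm. Vehicle sets full activity and 10 μM staurosporine sets background. Incorporated radioactivity counted by scintillation after washing with 75 mM phosphoric acid.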

[3] = target: Recombinant human JAK2 catalytic domain (Homo sapiens (Human), UniProt O60674); assay: JAK2 inhibition assay; type: biochemical; settings: semi-quantitative score
Method in brief: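 Activity was taken as vehicle cpm minus cpm with 10 μM staurosporine, and inhibition was expressed on that scale. Incubation was 90 min at 30 °C, followed by acid quench, phosphoric acid washes and Microscint counting. Compounds were tested as dose series to obtain IC50.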

[4] = Caco2 permeability (bi-directional); type: in vitro ADME, human; settings: human, pH 7.4; for Papp A→B at 1 h, 10 µM: Caco-2, apical to basolateral, read-out: Papp (A2B); for efflux ratio at 1 h, 10 µM: Caco-2, ratio of PappB>A/PappA>B
Description: Bi-directional Caco-2 assays were performed as described below.
2×10^5 cells/well were seeded in plating medium consisting of DMEM+GlutaMAXI+1% NEAA+10% FBS (FetalClone II)+1% Pen/Strep. The medium was changed every 2-3 days.
50 μM Lucifer Yellow (Sigma) was added to the donor buffer in all wells to assess integrity of the cell layers by monitoring Lucifer Yellow permeation. As Lucifer Yellow (LY) cannot freely permeate lipophilic barriers, a high degree of LY transport indicates poor integrity of the cell layer.
After a 1 hour incubation at 37° C. while shaking at an orbital shaker at 150 rpm, 70 μL aliquots were taken from both apical (A) and basal (B) chambers and added to 100 μL1 50:50 acetonitrile:water solution containing analytical internal standard (0.5 μM carbamazepine) in a 96 well plate.
Concentrations of compound in the samples were measured by high performance liquid-chromatography/mass spectroscopy (LC-MS/MS).
The Efflux ratios, as an indication of active efflux from the apical cell surface, were calculated using the ratio of PappB>A/PappA>B.
The following assay acceptance criteria were used:
Lucifer yellow permeability: ≤100 nm/s

[5] = target: Recombinant human JAK3 catalytic domain (Homo sapiens (Human), UniProt P52333); assay: JAK3 inhibition assay; type: biochemical; settings: semi-quantitative score
Description: Plates were washed 6 times with 300 μL per well of a 75 mM phosphoric acid solution and the bottom of the plates was sealed. 40 μL/well of Microscint-20 was added, the top of the plates was sealed and readout was performed using the Topcount (Perkin Elmer). Kinase activity was calculated by subtracting counts per minute (cpm) obtained in the presence of a positive control inhibitor (10 μM staurosporine) from cpm obtained in the presence of vehicle. The ability of a test compound to inhibit this activity was determined as: Percentage inhibition=((cpm determined for sample with test compound present−cpm determined for sample with positive control inhibitor) divided by (cpm determined in the presence of vehicle−cpm determined for sample with positive control inhibitor))*100%.
Dose dilution series were prepared for the compounds enabling the testing of dose-response effects in the JAK3 assay and the calculation of the IC50 for each compound.

[6] = Microsomal stability, human liver microsomes; type: in vitro ADME; settings: percentage of compound remaining after 60 minutes, 3 μM compound
Method in brief: as §1

[7] = system: JAK-STAT signalling in HeLa cells; assay: JAK-STAT signalling assay (OSM-triggered pSTAT1(2)-luciferase reporter in HeLa cells); type: cell-based; settings: Homo sapiens; HeLa cells, OSM-triggered pSTAT1(2)-luciferase reporter; read-out: STAT signalling EC50
Method in brief: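 Read-out is oncostatin M–driven pSTAT1(2)-luciferase activity, corrected by co-transfected LacZ β-galactosidase, in transiently transfected HeLa cells cultured overnight at 37 °C, 10% CO2. Inhibition percentages against positive and negative controls were plotted across doses to derive EC50.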

Chain of Recombinant human JAK2 catalytic domain (O60674 808-1132): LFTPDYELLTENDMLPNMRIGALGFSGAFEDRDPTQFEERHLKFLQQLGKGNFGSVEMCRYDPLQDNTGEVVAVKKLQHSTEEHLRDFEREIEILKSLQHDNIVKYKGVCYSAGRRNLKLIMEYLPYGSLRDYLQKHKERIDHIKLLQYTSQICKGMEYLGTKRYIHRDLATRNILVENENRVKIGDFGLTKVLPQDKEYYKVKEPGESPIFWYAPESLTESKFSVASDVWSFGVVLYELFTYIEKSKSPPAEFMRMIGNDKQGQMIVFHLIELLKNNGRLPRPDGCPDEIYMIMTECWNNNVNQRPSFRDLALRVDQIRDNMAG
Chain of Recombinant human JAK1 catalytic domain (P23458 850-1154): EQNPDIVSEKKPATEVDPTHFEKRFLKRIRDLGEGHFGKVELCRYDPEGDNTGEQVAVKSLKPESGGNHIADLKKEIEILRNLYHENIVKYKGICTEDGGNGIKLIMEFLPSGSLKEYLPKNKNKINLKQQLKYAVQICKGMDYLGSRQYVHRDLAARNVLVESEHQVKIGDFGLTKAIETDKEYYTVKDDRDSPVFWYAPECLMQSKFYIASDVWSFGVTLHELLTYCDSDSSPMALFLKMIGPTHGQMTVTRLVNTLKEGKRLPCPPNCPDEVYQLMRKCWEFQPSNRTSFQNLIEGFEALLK
Chain of Recombinant human JAK3 catalytic domain (P52333 781-1124): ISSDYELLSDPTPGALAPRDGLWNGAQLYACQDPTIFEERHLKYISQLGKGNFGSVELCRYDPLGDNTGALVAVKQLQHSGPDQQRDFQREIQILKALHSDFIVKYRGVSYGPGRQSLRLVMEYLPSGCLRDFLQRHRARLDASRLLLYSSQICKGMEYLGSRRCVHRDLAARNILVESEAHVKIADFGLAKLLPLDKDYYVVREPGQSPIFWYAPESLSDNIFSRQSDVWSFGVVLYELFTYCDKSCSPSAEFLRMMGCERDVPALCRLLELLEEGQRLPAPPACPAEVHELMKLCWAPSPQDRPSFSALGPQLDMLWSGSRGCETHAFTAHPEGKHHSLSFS

Microsomal Stability Rat (%) [1] | EC50 (MMP13 in SW1353 cells) | IC50 ([2]; semi-quantitative score) | IC50 [3] | Papp A→B at 1 h, 10 µM [4] | efflux ratio at 1 h, 10 µM [4] | IC50 [5] | Microsomal Stability Human (%) [6] | EC50 [7] | SMILES | IC50 [2]
* (* 0-25) | 501 to 1000 nM | < 100 nM | < 100 nM | 20.9 ×10⁻⁶ cm/s | 1.81 | 101 to 500 nM | * (* 0-25) | 101 to 500 nM | O=C(NCCc1ccccc1)c1ccc(-c2cccc3nc(NC(=O)C4CC4)nn23)cc1 [Compound 87, 4-(2-(cyclopropanecarboxamido)-[1,2,4]triazolo[1,5-a]pyridin-5-yl)-N-phenethylbenzamide] | –
** (** 26-50) | 1 to 500 nM | < 100 nM | 101 to 500 nM | – | – | > 1000 nM | ** (** 26-50) | > 1000 nM | O=C(Nc1nc2cccc(-c3ccc(NS(=O)(=O)Cc4ccccc4)cc3)n2n1)C1CC1 [Compound 77, N-(5-(4-(phenylmethylsulfonamido)phenyl)-[1,2,4]triazolo[1,5-a]pyridin-2-yl)cyclopropanecarboxamide] | –
* (* 0-25) | > 1000 nM | < 100 nM | 101 to 500 nM | – | – | > 1000 nM | * (* 0-25) | > 1000 nM | O=C(Nc1nc2cccc(-c3ccc(NS(=O)(=O)CCc4cccc(F)c4)cc3)n2n1)C1CC1 [Compound 88, N-(5-(4-(2-(3-fluorophenyl)ethylsulfonamido)phenyl)-[1,2,4]triazolo[l,5-a]pyridin-2-yl)cyclopropanecarboxamide] | –
* (* 0-25) | 501 to 1000 nM | < 100 nM | 101 to 500 nM | – | – | > 1000 nM | * (* 0-25) | > 1000 nM | O=C(NCCCc1ccccc1)c1ccc(-c2cccc3nc(NC(=O)C4CC4)nn23)cc1 [Compound 114, 4-(2-(cyclopropanecarboxamido)-[1,2,4]triazolo[1,5-a]pyridin-5-yl)-N-(3-phenylpropyl)benzamide] | –
** (** 26-50) | > 1000 nM | < 100 nM | 101 to 500 nM | – | – | > 1000 nM | **** (**** 76-100) | > 1000 nM | O=C(c1ccccc1)c1ccc(-c2cccc3nc(NC(=O)C4CC4)nn23)cc1 [Compound 10, N-(5-(4-benzoylphenyl)-[1,2,4]triazolo[1,5-a]pyridin-2-yl)cyclopropanecarboxamide] | –
*** (*** 51-75) | > 1000 nM | < 100 nM | 101 to 500 nM | – | – | > 1000 nM | **** (**** 76-100) | > 1000 nM | O=C(Nc1nc2cccc(-c3ccc(C(=O)N4CCCC4)cc3)n2n1)C1CC1 [Compound 19, N-(5-(4-(pyrrolidine-1-carbonyl)phenyl)-[1,2,4]triazolo[1,5-a]pyridin-2-yl)cyclopropanecarboxamide] | –
**** (**** 76-100) | > 1000 nM | < 100 nM | – | – | – | > 1000 nM | * (* 0-25) | > 1000 nM | CN1CCN(C(=O)c2ccc(-c3cccc4nc(NC(=O)C5CC5)nn34)cc2)CC1 [Compound 71, N-(5-(4-(4-methylpiperazine-1-carbonyl)phenyl)-[1,2,4]triazolo[1,5-a]pyridin-2-yl)cyclopropanecarboxamide] | –
* (* 0-25) | > 1000 nM | < 100 nM | – | 11.2 ×10⁻⁶ cm/s | – | 101 to 500 nM | * (* 0-25) | 501 to 1000 nM | O=C(Nc1nc2cccc(-c3ccc(CC(=O)N4CCC(C(F)(F)F)CC4)cc3)n2n1)C1CC1 [Compound 319, Cyclopropanecarboxylic acid (5-{4-[2-oxo-2-(4-trifluoromethyl-piperidin-1-yl)-ethyl]-phenyl}-[1,2,4]triazolo[1,5-a]pyridin-2 yl)-amide] | –

Continued, compound first:

SMILES | Microsomal Stability Rat (%) [1] | EC50 (MMP13 in SW1353 cells) | IC50 ([2]; semi-quantitative score) | IC50 [3] | Papp A→B at 1 h, 10 µM [4] | efflux ratio at 1 h, 10 µM [4] | IC50 [5] | Microsomal Stability Human (%) [6] | EC50 [7] | IC50 [2]
O=C(Nc1nc2cccc(-c3ccc(OCc4ccc(C(F)(F)F)nc4)cc3)n2n1)C1CC1 [Compound 78, N-(5-(4-((6-(trifluoromethyl)pyridin-3-yl)methoxy)phenyl)-[1,2,4]triazolo[1,5-a]pyridin-2-yl)cyclopropanecarboxamide] | **** (**** 76-100) | 501 to 1000 nM | < 100 nM | < 100 nM | – | 1.5 | 101 to 500 nM | **** (**** 76-100) | > 1000 nM | –
CCCc1ccc(S(=O)(=O)Nc2ccc(-c3cccc4nc(NC(=O)C5CC5)nn34)cc2)cc1 [Compound 85, N-(5-(4-(4-propylphenylsulfonamido)phenyl)-[1,2,4]triazolo[1,5-a]pyridin-2-yl)cyclopropanecarboxamide] | * (* 0-25) | > 1000 nM | < 100 nM | 101 to 500 nM | – | – | > 1000 nM | * (* 0-25) | > 1000 nM | –
NC(=O)c1ccc(COc2ccc(-c3cccc4nc(NC(=O)C5CC5)nn34)cc2)cn1 [Compound 192, 5-{4-[2-(Cyclopropanecarbonyl-amino)-[1,2,4]triazolo[1,5-a]pyridin-5-yl]-phenoxymethyl}-pyridine-2-carboxylic Acid Amide] | **** (**** 76-100) | 501 to 1000 nM | – | – | – | 2 | 101 to 500 nM | **** (**** 76-100) | 101 to 500 nM | < 100 nM
O=C(Nc1nc2cccc(-c3ccc(OCCn4cccn4)cc3)n2n1)C1CC1 [Compound 98] | ** (** 26-50) | > 1000 nM | < 100 nM | 101 to 500 nM | – | – | > 1000 nM | ** (** 26-50) | > 1000 nM | –
CN(C(=O)c1ccc(-c2cccc3nc(NC(=O)C4CC4)nn23)cc1)c1ccccc1 [Compound 30, 4-(2-(cyclopropanecarboxamido)-[1,2.4]triazolo[1,5-a]pyridin-5-yl)-N-methyl-N-phenylbenzamide] | * (* 0-25) | > 1000 nM | < 100 nM | < 100 nM | – | – | > 1000 nM | * (* 0-25) | 501 to 1000 nM | –
CCCCN(CCCN1CCOCC1)C(=O)c1ccc(-c2cccc3nc(NC(=O)C4CC4)nn23)cc1 [Compound 90, N-butyl-4-(2-(cyclopropanecarboxamido)-[1,2,4]triazolo[1,5-a]pyridin-5-yl)-N-(3-morpholinopropyl)benzamide] | ** (** 26-50) | > 1000 nM | < 100 nM | 501 to 1000 nM | – | – | > 1000 nM | ** (** 26-50) | > 1000 nM | –
CC(Oc1ccc(-c2cccc3nc(NC(=O)C4CC4)nn23)cc1)c1ccccn1 (stereo not shown) [Compound 189, N-(5-(4-(1-(pyridin-2-yl)ethoxy)phenyl)-[1,2,4]triazolo[1,5-a]pyridin-2-yl)cyclopropanecarboxamide] | ** (** 26-50) | > 1000 nM | < 100 nM | – | – | – | 501 to 1000 nM | ** (** 26-50) | 101 to 500 nM | –
